# Results as given in PMC6522510 (Nature Communications, 2019).
# Values joined by “and” are separate entries in the source; they are usually repeats but may differ in a detail not shown here. Equal values may be shown once. Read-outs that look alike come from different tables or passages of the source.
# Tests used:
# [1] = system: CMS; assay: Secondary dose-response HTS, Cell Titer Glo; format: cell-based, human; details: Homo sapiens, HTS, read-out: average effective concentration, CMS
# [2] = system: CMK; assay: Secondary dose-response HTS, Cell Titer Glo; format: cell-based, human; details: CMK; for EC50: Homo sapiens, read-out: average effective concentration, CMK
# [3] = system: ML2; assay: Secondary dose-response HTS, Cell Titer Glo; format: cell-based, human; details: Homo sapiens
# [4] = system: MV4-11; assay: cells; parameters: species or system AML cell lines (8); details: Homo sapiens, MV4-11, 72 h, read-out: MV4-11
# [5] = system: U937; assay: Secondary dose-response HTS, Cell Titer Glo; format: cell-based, human; details: Homo sapiens
# [6] = system: CHRF288-11; assay: Secondary dose-response HTS, Cell Titer Glo; format: cell-based, human; details: Homo sapiens, HTS, read-out: average effective concentration, CHRF288-11
# [7] = system: MOLM-13; assay: Secondary dose-response HTS, Cell Titer Glo; format: cell-based, human; details: for EC50: Homo sapiens, read-out: average effective concentration, MOLM-13
# [8] = system: M07e; assay: Secondary dose-response HTS, Cell Titer Glo; format: cell-based, human; details: Homo sapiens, M-07e, read-out: average effective concentration, M07e
# [9] = system: CMK; assay: cells; parameters: species or system AML cell lines (8); details: Homo sapiens, 72 h, read-out: CMK
# [10] = system: MV4-11; assay: Secondary dose-response HTS, Cell Titer Glo; format: cell-based, human; details: for EC50: Homo sapiens, read-out: average effective concentration, MV4-11
# [11] = system: MOLM-13; assay: cells; parameters: species or system AML cell lines (8); Secondary HTS, 10-point dose-response in triplicate, Cell Titer Glo viability, four-parameter fit EC50; details: Homo sapiens, read-out: MOLM-13
# [12] = system: U937; assay: cells; parameters: species or system AML cell lines (8); Secondary HTS, 10-point dose-response in triplicate, Cell Titer Glo viability, four-parameter fit EC50; details: Homo sapiens, read-out: U937
# [13] = system: CMS; assay: cells; parameters: species or system AML cell lines (8); details: 72 h, read-out: CMS
# [14] = system: CHRF288-11; parameters: species or system AML cell lines (8); Primary HTS, single concentration about 10 uM, Cell Titer Glo viability; log10 luminescence, per cent inhibition relative to cycloheximide control; details: 72 h, 10 µM, inhibitor
# [15] = system: MOLM-13; parameters: species or system AML cell lines (8); Primary HTS, single concentration about 10 uM, Cell Titer Glo viability; log10 luminescence, per cent inhibition relative to cycloheximide control; details: 72 h, 10 µM, inhibitor
# [16] = system: CMK; parameters: species or system AML cell lines (8); Primary HTS, single concentration about 10 uM, Cell Titer Glo viability; log10 luminescence, per cent inhibition relative to cycloheximide control; details: 72 h, 10 µM, inhibitor
# [17] = system: U937; parameters: species or system AML cell lines (8); Primary HTS, single concentration about 10 uM, Cell Titer Glo viability; log10 luminescence, per cent inhibition relative to cycloheximide control; details: 72 h, 10 µM, inhibitor
# [18] = system: MV4-11; parameters: species or system AML cell lines (8); Primary HTS, single concentration about 10 uM, Cell Titer Glo viability; log10 luminescence, per cent inhibition relative to cycloheximide control; details: 72 h, 10 µM, inhibitor
# [19] = system: M07e; parameters: species or system AML cell lines (8); Primary HTS, single concentration about 10 uM, Cell Titer Glo viability; log10 luminescence, per cent inhibition relative to cycloheximide control; details: 72 h, 10 µM, inhibitor
# [20] = system: ML-2; parameters: species or system AML cell lines (8); Primary HTS, single concentration about 10 uM, Cell Titer Glo viability; log10 luminescence, per cent inhibition relative to cycloheximide control
# [21] = system: CMS; parameters: species or system AML cell lines (8); Primary HTS, single concentration about 10 uM, Cell Titer Glo viability; log10 luminescence, per cent inhibition relative to cycloheximide control; details: 72 h, 10 µM, inhibitor
# [22] = system: MLLr primary AML blast samples; assay: Ex vivo drug treatment of primary AML blasts on mesenchymal stromal cells; format: cell-based; details: Homo sapiens; primary blasts on MSC, 96 h, range over patient samples
# [23] = system: MV4-11; assay: cells; parameters: species or system AML cell lines (8); Secondary HTS, 10-point dose-response in triplicate, Cell Titer Glo viability, four-parameter fit EC50; details: Homo sapiens, MV4-11, 72 h, read-out: MV4-11
# [24] = system: CHRF288-11; assay: cells; parameters: species or system AML cell lines (8); Secondary HTS, 10-point dose-response in triplicate, Cell Titer Glo viability, four-parameter fit EC50; details: 72 h, read-out: CHRF288-11
# [25] = system: CMK; assay: cells; parameters: species or system AML cell lines (8); Secondary HTS, 10-point dose-response in triplicate, Cell Titer Glo viability, four-parameter fit EC50; details: Homo sapiens, CMK, 72 h, read-out: CMK
# [26] = system: ML-2; assay: cells; parameters: species or system AML cell lines (8); Secondary HTS, 10-point dose-response in triplicate, Cell Titer Glo viability, four-parameter fit EC50; details: Homo sapiens, ML-2, 72 h, read-out: ML-2
# [27] = system: MOLM-13; assay: cells; parameters: species or system AML cell lines (8); Secondary HTS, 10-point dose-response in triplicate, Cell Titer Glo viability, four-parameter fit EC50; details: Homo sapiens, MOLM-13, 72 h, read-out: MOLM-13
# [28] = secondary high-throughput screen, CMS
# [29] = secondary high-throughput screen
# [30] = secondary high-throughput screen, ML-2, read-out: average effective concentration, ML-2
# [31] = U-937, secondary high-throughput screen, U937, read-out: average effective concentration, U937
# [32] = secondary high-throughput screen, CHRF288-11
# [33] = secondary high-throughput screen, MOLM-13
# [34] = secondary high-throughput screen, […]
# [35] = secondary high-throughput screen, MV4-11
# [36] = secondary high-throughput screen, M07e
Compound,"EC50 [1, 28] [nM]","EC50 [3, 30] [nM]",EC50 [4] [µM],"EC50 [5, 31] [nM]","EC50 [6, 32] [nM]","EC50 [7, 33] [nM]","EC50 [8, 34] [nM]","average effective concentration, MV4-11 [10, 35]","EC50 [2, 29] [nM]",EC50 ([11]; 72 h cell viability) [µM],"EC50 [10, 35] [nM]","EC50 [8, 36] [nM]",also measured
CCC(=O)CCCCC[C@@H]1NC(=O)[C@H]2CCCCN2C(=O)[C@H]([C@@H](C)CC)NC(=O)[C@H](Cc2cn(OC)c3ccccc23)NC1=O [APICIDIN],220,180,> 10,250,410,130,140,Inactive,,,,,"average effective concentration, CMK [2, 29]: Inactive; EC50 [9]: > 10 µM"
CC1=C(O)C(=O)C=C2C1=CC=C1[C@@]2(C)CC[C@@]2(C)[C@@H]3C[C@](C)(C(=O)O)CC[C@]3(C)CC[C@]12C [CELASTROL],64,67,> 10,79,75,,940,Inactive,69,> 10,,,"average effective concentration, MOLM-13 [7, 33]: Inactive"
CN1C(=O)[C@@]23C[C@]4([C@]56C[C@@]78SS[C@@](CO)(C(=O)N7[C@H]5Nc5ccccc56)N(C)C8=O)c5ccccc5N[C@@H]4N2C(=O)[C@]1(CO)SS3 [CHAETOCIN],10,26,,,12,62,12,,,,29,,"average effective concentration, CMK [2, 29]: Inactive; EC50 ([12]; U-937, 72 h cell viability): 7.7 nM; EC50 [9]: > 10 µM"
Nc1nc(Cl)nc2c1ncn2[C@H]1C[C@H](O)[C@@H](CO)O1 [CLADRIBINE],,190,,87,170,35,,,30,,24,14,EC50 [13]: > 10 µM
CN1C(=O)[C@]23CC4=CC=C[C@H](O)[C@H]4N2C(=O)[C@@]1(CO)SS3 [GLIOTOXIN],26,25,> 10,12,24,,130,Inactive,16,> 10,,,"CHRF288-11 %inh [14]: 141.2% and 155.7%; MOLM-13 %inh [15]: 95.14% and 103.3%; CMK %inh [16]: 129.2% and 125%; U937 %inh [17]: 86.1% and 87.37%; MV4-11 %inh [18]: 84.27% and 75%; average effective concentration, MOLM-13 [7, 33]: Inactive; M07e %inh [19]: 143.7% and 136.2%; ML-2 %inh ([20]; 72 h, 10 µM, inhibitor): 66.31%; ML-2 %inh ([20]; 72 h, 10 µM; inhibitor): 62.11%; CMS %inh [21]: 108.9% and 102.6%"
C=C1C(=O)O[C@@H]2C[C@@H](C)[C@@H]3C=CC(=O)[C@@]3(C)[C@@H](O)[C@H]12 [HELENALIN],,,> 10,,,,,,,> 10,,,"EC50 [1]: 210 nM; EC50 [2]: 190 nM; EC50 ([3]; ML-2, read-out: average effective concentration, ML-2): 130 nM; EC50 ([5]; U-937, read-out: average effective concentration, U937): 170 nM; EC50 [6]: 170 nM; average effective concentration, MOLM-13 [7]: Inactive; EC50 [8]: 340 nM; average effective concentration, MV4-11 [10]: Inactive"
"C=CC(=O)N1CCC[C@@H](n2nc(-c3ccc(Oc4ccccc4)cc3)c3c(N)ncnc32)C1 [Ibrutinib, reference compound]",> 10000,,,10000,,6700,,,> 10000,,10000,,IC50 [22]: > 20 µM
C[C@]12O[C@H](C[C@]1(O)CO)n1c3ccccc3c3c4c(c5c6ccccc6n2c5c31)CNC4=O [LESTAURTINIB],7.55,320,,41,110,,,,3.3,> 10,3200,1,
O=c1cc(N2CCOCC2)oc2c(-c3ccccc3)cccc12 [LY-294002],> 10000,,,,,,,,,,,> 10000,"EC50 [23]: > 10 µM; EC50 [24]: > 10 µM; EC50 ([12]; U-937, 72 h): > 10000 nM; EC50 [25]: > 10 µM; EC50 [26]: > 10 µM; EC50 [27]: > 10 µM"
COC(=O)[C@]1(C)CC[C@]2(C)CC[C@]3(C)C4=CC=C5C(=CC(=O)C(O)=C5C)[C@]4(C)CC[C@@]3(C)[C@@H]2C1 [[…]],,,> 10,,,,,,,,,,"EC50 ([11]; MOLM-13, 72 h): > 10 µM"
